In brackets after ≈: the same amount, converted by molar mass.

A short description of data set [1]: in vivo. The note with it: both sexes, rat, oral, suspended in 0.5% CMC-Na aqueous solution, SD male and female rats, observed for seven days.
In data set [2] the test system is Campylobacter jejuni. The data set is described as follows: Measurement of anti-Campylobacter jejuni activity (MIC). It counts as cell-based. The note with it: method similar to Test Example 1. How it is done:
Brain heart infusion culture medium containing 10% fetal bovine serum (Difco) (5 ml) was taken in a test tube, and then the medium was inoculated with Helicobacter pylori strain 31A isolated from human (obtained from the Metropolitan Health Institute, Microorganism Department, First Laboratory of Bacteria). Cultivation was carried out under slightly aerobic condition (5% oxygen, 10% carbon dioxide, 85% nitrogen) at 37° C. for 48 hours with shaking.
The culture was then inoculated to brain heart infusion medium containing 10% fetal bovine serum at a ratio of 5%, and added with a test compound dissolved in 10% dimethyl sulfoxide. Cultivation was carried out under slightly aerobic condition at 37° C. for 48 hours with shaking, and then growth of Helicobacter pylori was examined. […] From the results shown in Tables 3 and 4, it can be understood that the compounds of the present invention have potent inhibitory activity against Helicobacter pylori.
According to a aimiar method to that of Test Example 1, inhibitory activity of the compound of the present invention against Campylobacter jejune was determined. As a result, MIC of the compound of Example 31 was 0.008 μg/ml. From the result, it can be understood that the compound of the present invention has potent inhibitory activity against Campylobacter jejumni.

A word on the LD50: it is the dose at which mortality reaches 50%. Higher therefore signals lower toxicity. In turn, `CNC(=O)c1cccc(NC(=O)Cc2cccc3ccccc23)c1` [Example 30, N-(3-Methylcarbamoylphenyl)-1-naphthylacetamide] yielded an LD50 in data set [1] not below 2000 mg/kg.

The MIC is the lowest concentration found to suppress growth. A lower MIC goes with a more susceptible organism. For the molecule `CNC(=O)c1cccc(NC(=O)Cc2ccc3ccccc3c2)c1` [Example 31, N-(3-Methylcarbamoylphenyl)-2-naphthylacetnide], in data set [2], the MIC came to 8 ng/mL (≈ 0.0251 µM).

For the origin of these results see patent US6444849B1, “Amide derivatives” (Mitsubishi Chemical Corporation, priority 1997, dated 2002).
